According to patent US20250248973A1, “CANNABINOID RECEPTOR 1 ANTAGONISTS/INVERSE AGONISTS AND USES THEREOF” (Corbus Pharmaceuticals, Inc., priority 2022, published 2025):

Tests used:
[1] = molecular target: Human CB1 Receptor-1b (hCB1b) (Homo sapiens (Human), UniProt P21554); assay: hCB1b Gai cyclic AMP (cAMP) TR-FRET assay, antagonism of EC80 CP55940 with forskolin; format: cell-based; conditions: hCB1b cells, 30 min pre-incubation, read-out: CB1b IC50
Outline: (§1)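 Cells expressing hCB1 or hCB1b were preincubated with compound for 30 min at rt, then stimulated with an EC80 concentration of CP55940 plus forskolin for 20 min at 37C. cAMP was measured by TR-FRET using Eu-cAMP and 650-labeled anti-cAMP in lysis buffer, with emission at 620/665 nm. IC50 values are binned by category.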

[2] = Pharmacokinetics following oral administration in male C57BL/6 mice: brain/plasma ratio; format: in vivo; conditions: single PO 10 mg/kg, compared to rimonabant 10 mg/kg PO
Protocol: FIG. 2 provides graphs showing the brain/plasma ratio of orally administered Compound 9 (10 mg/kg) in comparison to orally administered rimonabant (10 mg/kg) C57BL/6J in mice, as measured by area under the curve from 0 to 24 hours (AUC0-24) and maximum concentration (Cmax) post administration.
Example 5. Pharmacokinetics of Following Oral Administration in Male C57BL/6 Mice
A study was conducted to compare the brain/plasma ratios of Compound 9 and rimonabant following oral administration in mice.
Fasted overnight with free access to water and fed 4 hr post dosing
PO administration via oral gavage
Group 2: PO, 10 mg/kg, 10 mL/kg
0.5% MC (400 cp) in purified water (1 mg/mL)
Terminal sampling for brain @0.25, 0.5, 1, 2, 4, 8 and 24 hr, 7 time points. (N=3/timepoint, N=21/arm); collect brains after perfusion.

[3] = molecular target: Human CB1 Receptor-1 (hCB1) (Homo sapiens (Human), UniProt P21554); assay: hCB1 Gai cyclic AMP (cAMP) TR-FRET assay, antagonism of EC80 CP55940 with forskolin; format: cell-based; conditions: hCB1 cells, 30 min pre-incubation
Sequence of Human CB1 Receptor-1 (hCB1) (P21554 whole entry): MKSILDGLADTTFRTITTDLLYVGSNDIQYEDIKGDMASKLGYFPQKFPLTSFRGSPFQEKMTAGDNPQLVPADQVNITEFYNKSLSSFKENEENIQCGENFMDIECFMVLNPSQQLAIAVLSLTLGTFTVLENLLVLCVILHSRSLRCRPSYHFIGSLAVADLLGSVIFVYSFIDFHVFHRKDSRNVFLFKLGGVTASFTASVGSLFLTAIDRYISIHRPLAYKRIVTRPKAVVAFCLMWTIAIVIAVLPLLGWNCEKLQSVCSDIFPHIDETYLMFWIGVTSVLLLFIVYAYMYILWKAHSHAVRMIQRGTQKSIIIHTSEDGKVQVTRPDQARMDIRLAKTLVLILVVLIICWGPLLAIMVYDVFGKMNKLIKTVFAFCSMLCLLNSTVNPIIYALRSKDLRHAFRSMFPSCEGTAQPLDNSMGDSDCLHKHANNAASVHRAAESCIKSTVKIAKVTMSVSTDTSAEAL
Outline: as §1

Sequence of Human CB1 Receptor-1b (hCB1b) (P21554 other isoform, or with tags, fused parts or gaps): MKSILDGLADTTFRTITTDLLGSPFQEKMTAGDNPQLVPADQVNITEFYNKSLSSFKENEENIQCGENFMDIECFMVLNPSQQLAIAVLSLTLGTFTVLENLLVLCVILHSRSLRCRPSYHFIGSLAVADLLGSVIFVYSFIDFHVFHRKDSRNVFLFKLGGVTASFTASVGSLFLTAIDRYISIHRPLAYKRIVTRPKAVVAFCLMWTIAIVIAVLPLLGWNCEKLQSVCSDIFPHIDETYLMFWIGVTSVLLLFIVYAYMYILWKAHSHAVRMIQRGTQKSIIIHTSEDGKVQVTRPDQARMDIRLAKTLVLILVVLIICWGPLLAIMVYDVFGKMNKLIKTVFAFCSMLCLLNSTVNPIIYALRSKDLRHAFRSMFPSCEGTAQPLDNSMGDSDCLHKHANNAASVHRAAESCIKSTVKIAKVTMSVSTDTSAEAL

NS(=O)(=O)CCNC(=NS(=O)(=O)c1ccc(C(F)(F)F)cc1)N1C[C@H](c2ccccc2)C(c2ccc(Cl)cc2)=N1 [Compound 9, (S,E)-3-(4-chlorophenyl)-4-phenyl-N-(2-sulfamoylethyl)-N′-((4-(trifluoromethyl)phenyl)sulfonyl)-4,5-dihydro-1H-pyrazole-1-carboximidamide]
IC50 [1]: < 100 nM | blood-brain-barrier penetration (brain/plasma ratio by AUC0-24 and Cmax) [2]: substantially reduced blood-brain-barrier penetration as compared to rimonabant | IC50 [3]: < 100 nM
